From patent US7947668B2, “Aminoalkyl sterol compounds having an anti-tumoral and neuroprotective activity” (Institut National de la Sante et de la Recherche Medicale, priority 2002, dated 2011)

Legend:
[1] = system: U937 cells; test: Induction of vacuole production in the U937 tumoral cell line; format: cell-based, human; details: 10 nM, 24 hours
Procedure: U937 cells were treated with 10 nM of the compound according to example 9 for 24 hours. The treatment methods are those described in detail in example 55.

[2] = system: A549 cells; test: Induction of vacuole production in the A549 tumoral cell line; format: cell-based, human
Procedure: A549 cells were treated with 100 nM of compound according to example 9, for 12 hours.
The A549 cells were obtained from the American Tissue Culture Collection (ATCC); they were inoculated at a density of 50 000 cells per well into 12-well plates and were cultured in RPMI medium supplemented with 5% fetal calf serum. To perform the treatment with the compound according to the invention, the cells are incubated with said compound (or with a control product) for 48 hours. The cells are then observed by phase-contrast microscopy every four hours to monitor the formation of vacuoles, and are then fixed with 0.4% paraformaldehyde solution in phosphate-buffered saline (PBS) at pH 7.4.
To obtain photograph D indicated above, the process was performed as follows: after treating the cells, the culture medium is removed and the cells are washed with PBS at pH 7.4. The cells are incubated for 10 minutes with 1 μM solutions of monodansyl cadaverine (MDC). They are then rinsed thoroughly with PBS solution at 4° C. One drop of “Vectashield” solution (Vector Laboratories, CA) is added before mounting between microscope slide and cover slip: the cells are then observed rapidly under the microscope and photographed.
The A549 cells treated as indicated above with the compound according to example 9 were also examined by electron microscopy. To examine these A549 cells by electron microscopy, they are fixed using a solution of PBS containing 3% glutaraldehyde, taken up in resin (EPON) and finally cut into thin slices using an ultra-microtome. These slices are then placed on 200-mesh copper grilles and examined by electron microscopy. […] In this FIG. 11, the letters used have the following meanings: N=nucleus; C=cytoplasm; M=mitochondria; Vi=intracytoplasmic vesicles; Ve=extracellular vesicles; MLB=multilamellar body.

[3] = system: C57BL/6 mouse spleen monocytes; test: Dendritogenesis on C57BL/6 mouse spleen monocytes; format: cell-based; details: dose of 1 nM, 36 hours after the start of action
Procedure: 1) On C57BL/6 Mouse Spleen Monocytes
5-week-old mice are sacrificed by cervical dislocation. They are then dissected. The spleens are removed under sterile conditions and then placed in a cold solution (4° C.) containing serum-free culture medium supplemented with antibiotics (streptomycin and penicillin). The spleens are ground in a sterile fume cupboard and then filtered through a 100 μm filter. The eluate is recovered and then centrifuged at 1000 rpm for 5 minutes at 4° C. The cell pellet is resuspended in phosphate-buffered saline (PBS) solution containing […], the purpose of which is to lyze the red blood cells. The suspension is centrifuged at 1000 rpm and the cells are then resuspended in PBS. The washing operation is performed twice. The final resuspension is performed in whole culture medium, and the cells are counted and distributed into six-well dishes at a density of 40 000 cells/ml. Four hours later, the adhering cells are washed vigorously with PBS in order to remove the cells that might remain attached to the adhering cells or to the culture dish.
The conversion was obtained with a dose of 1 nM, the photograph having been taken 36 hours after the start of action of the product. The test product is that of example 9. The appearance of cellular extensions is observed, which is one of the main characteristics of activated dendritic cells.

[4] = system: TS/A (H-2^d) cells; test: Cytotoxicity on TS/A mouse mammary adenocarcinoma cells in culture; format: cell-based
Procedure: The mouse tumoral line TS/A(H-2^d) is a cell line of a spontaneous mammary adenocarcinoma of syngenic mice of BALB/c mice. They are cultured in mycoplasm-free controlled RPMI 1640 medium supplemented with endotoxin-free controlled fetal calf serum (Girco-Brio, 2 mM of glutamine, 100 U/ml of penicillin, 50 μg/ml of streptomycin, essential amino acids and sodium pyruvate.
The cytotoxicity appears for doses of 50 μM.

[5] = system: A549 cells; test: Actin and tubulin skeleton on treated A549 cells (fluorescence microscopy); format: cell-based, human
Procedure: A549 cells were treated with the compound of example 9 according to the protocol described in detail in example 55; they are inoculated onto glass slides placed at the bottom of six-well culture dishes (NUNC) at a density of 50 000 cells per well in a nutrient medium of “RPMI 1640” type sold by the company “Gibco BRL”, supplemented with 10% fetal calf serum. The cells are then fixed with 3% paraformaldehyde solution and are permeabilized with a detergent solution containing 0.1% “Triton-X-100” in PBS. The actin skeleton of the treated cells was observed by labeling the cells with phalloidin-FITC.
In this case, the A549 cells are labeled with an anti-γ-tubulin antibody and developed with an anti-IgG-FITC antibody.

[6] = system: U-937 human myeloid leukemia cells; test: Dendritogenesis on U-937 human myeloid leukemia cells; format: cell-based; details: 1 nM
Excerpt: 2) On U-937 Human Myeloid Leukemia Cells

[7] = system: T lymphocytes originating from BALB/c mouse spleens; test: Proliferation of T lymphocytes (tritiated thymidine incorporation); format: cell-based; details: C57BL/6 dendritic cells in contact with BALB/c T lymphocytes
Procedure: C57BL/6 mouse monocytes were collected as indicated in example 48.1. The dendritic cells were obtained as indicated in example 9. After transformation into CDs with the test compound, the cells are treated with an antimitotic agent (mitomycin C at 0.0006 mg/ml) and incubated for 30 minutes at 37° C., in order to block DNA synthesis in the CDs. After this treatment, the cells are washed twice with RPMI 1640 medium supplemented with 10% fetal calf serum.
BALB/c mouse spleens were also collected and treated as described for the preparation of the C57BL/6 mouse monocytes. The nonadherent cells, which contain the T lymphocytes, are recovered and added to the C57BL/6 mouse dendritic cells. On the fourth day of contact of the cells, tritiated thymidine is added. After incubation for 18 hours, the cells are lyzed with absolute alcohol. The precipitate is suspended in water and then filtered through a cellulose filter. The incorporation of thymidine is measured by scintillation counting (Packard Instrument, Meriden Conn., USA).
The adherent monocytes originating from mouse spleens obtained according to example 14.1 were treated with the abovementioned compound at variable doses. […] The lymphocyte proliferation is measured by measuring the incorporation of tritiated thymidine into the DNA.

## CC(C)CCC[C@@H](C)[C@H]1CC[C@H]2[C@@H]3C[C@@H](NCCc4c[nH]cn4)[C@@]4(O)C[C@@H](O)CC[C@]4(C)[C@H]3CC[C@]12C [Example 9, cholestane-3β,5α-diol-6β-N-[2-ethylamino(1H-imidazol-4-yl)]]
[1]
  induction of vacuole production in U937 cells (electron microscopy): numerous intracytoplasmic vacuoles have appeared
[2]; 100 nM, 12 hours
  induction of vacuole production in A549 cells: massive production of cytoplasmic vacuoles
[2]; A549 cells
  dose dependence of the vacuole effect: dose-dependent
  time after the treatment at which the vacuole effect appears: six
  time after the treatment at which the vacuole effect reaches a maximum: 12 h
[2]; FIG. 11.2
  electron microscopy of treated A549 cells: numerous vacuoles and mitochondria are also observed in the cytoplasm
[2]; growth medium replaced with fresh medium
  reversibility of the vacuole effect: reversible
[3]
  morphological changes on the mouse monocytes, conversion into dendritic cells: conversion resulting in dendritic cells
[4]; doses of 5 nM and 1 μM, irrespective of the incubation time
  toxicity on TS/A cells: no toxicity is observed
[4]; in vitro
  dose at which cytotoxicity on TS/A appears: 50 µM
[5]; FIG. 12 photograph 2
  actin skeleton of treated A549 cells (phalloidin-FITC): appearance of refringent vesicles, which are surrounded by actin
[5]; FIG. 13 photograph 2
  tubulin skeleton of treated A549 cells (anti-γ-tubulin antibody): presence of intracytoplasmic vacuoles, which are not surrounded with γ-tubulin
[6]; after treatment for 5 days
  formation of rosettes (aggregate of entangled cells): formation of a large number of rosettes
  size of the dendrites: up to 100 μm
[6]; treatment for 2 days, after 10 ng/ml PMA
  induction of differentiation of the U-937 cells into dendritic cells: appearance of dendritic cells
[7]
  stimulation of the T lymphocyte proliferation (factor): 5
